These results are taken from patent US20170334899A1, “AMINO-SUBSTITUTED ISOTHIAZOLES” (Bayer Pharma Aktiengesellschaft, priority 2014, published 2017).

This test has as its target T1, catalytic domain of human Bub1 (amino acids 704-1085) (Homo sapiens, UniProt O43683).
T1 construct: catalytic domain of human Bub1 (amino acids 704-1085); His6 (N); made in house; host or cells: insect cells (Hi5)
In words: Bub1 kinase assay (TR-FRET). It is filed as biochemical. Conditions: 10 μM ATP, avg, read-out: Bub1 avg (IC50 [mol/l]). Summed up:
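Readout is the 665/620 nm TR-FRET ratio from anti-phosphoserine antibody, Eu-labelled anti-mouse IgG and streptavidin-XL665, scaled between no-enzyme and uninhibited controls. Reaction: 1 μM biotinylated peptide, 10 μM ATP, 60 min, 22 °C, after 15 min compound preincubation with His6-Bub1 (704-1085, insect-expressed, ~200 ng/ml).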
(In general: Time-resolved FRET reads energy transfer from a long-lived donor to a nearby acceptor.)

Molecules are shown by their SMILES. Where “and” joins values, the source holds several entries; their conditions need not be identical. Identical values can stand only once.

T1 sequence (O43683 704-1085): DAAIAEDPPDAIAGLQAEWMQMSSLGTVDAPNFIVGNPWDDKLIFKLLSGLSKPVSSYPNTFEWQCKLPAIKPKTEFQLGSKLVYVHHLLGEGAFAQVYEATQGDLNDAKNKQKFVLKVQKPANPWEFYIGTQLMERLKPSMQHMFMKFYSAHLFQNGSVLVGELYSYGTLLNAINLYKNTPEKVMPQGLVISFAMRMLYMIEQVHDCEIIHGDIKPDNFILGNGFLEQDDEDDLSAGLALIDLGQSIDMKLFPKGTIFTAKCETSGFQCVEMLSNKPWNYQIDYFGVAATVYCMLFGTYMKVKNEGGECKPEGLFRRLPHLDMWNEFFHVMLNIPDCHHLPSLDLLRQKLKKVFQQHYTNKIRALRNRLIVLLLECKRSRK

Turning to `Cc1nsc(Nc2cnc(C(F)(F)F)cn2)c1C(=O)Nc1ccc(OC2CCN(CC(F)F)C2)nc1` (stereo not shown) [Example 296, N-(6-{[1-(2,2-difluoroethyl)pyrrolidin-3-yl]oxy}pyridin-3-yl)-3-methyl-5-{[5-(trifluoromethyl)pyrazin-2-yl]amino}-1,2-thiazole-4-carboxamide], the IC50 is greater than 20 µM.
As for `Cc1nsc(Nc2cnc(C(F)(F)F)cn2)c1C(=O)Nc1ccc(OCCNCCF)nc1` [Example 321, N-(6-{2-[(2-fluoroethyl)amino]ethoxy}pyridin-3-yl)-3-methyl-5-{[5-(trifluoromethyl)pyrazin-2-yl]amino}-1,2-thiazole-4-carboxamide], the IC50 turned out to be 14 µM.
The result for `COC(=O)CCCc1ccc(NC(=O)c2c(C)nsc2Nc2cc(C#N)ccn2)cc1` [Example 256, methyl 4-{4-[({5-[(4-cyanopyridin-2-yl)amino]-3-methyl-1,2-thiazol-4-yl}carbonyl)amino]phenyl}butanoate] reads greater than 20 µM; that for `CCN1CCC(Oc2ccc(NC(=O)c3c(C)nsc3Nc3cc(C#N)ccn3)cn2)CC1` [Example 26, 5-[(4-Cyanopyridin-2-yl)amino]-N-{6-[(1-ethylpiperidin-4-yl)oxy]pyridin-3-yl}-3-methyl-1,2-thiazole-4-carboxamide], no less than 20 µM.
The result for `Cc1nsc(Nc2cnc(C(F)(F)F)cn2)c1C(=O)Nc1ccc(OCCO)nc1` [Example 277, N-[6-(2-hydroxyethoxy)pyridin-3-yl]-3-methyl-5-{[5-(trifluoromethyl)pyrazin-2-yl]amino}-1,2-thiazole-4-carboxamide] reads > 20 µM and 18 µM; that for `Cc1nsc(Nc2cncc(C(F)(F)F)n2)c1C(=O)Nc1ccc(OC2CCN(CCC(F)(F)F)CC2)nc1` [Example 304, 3-methyl-5-{[6-(trifluoromethyl)pyrazin-2-yl]amino}-N-(6-{[1-(3,3,3-trifluoropropyl)piperidin-4-yl]oxy}pyridin-3-yl)-1,2-thiazole-4-carboxamide], greater than 20 µM; that for `Cc1nsc(Nc2cnc(C(F)(F)F)cn2)c1C(=O)Nc1ccc(N(C)C)c(OCCCN(C)CCC(F)(F)F)c1` [Example 300, N-[4-(dimethylamino)-3-{3-[methyl(3,3,3-trifluoropropyl)amino]propoxy}phenyl]-3-methyl-5-{[5-(trifluoromethyl)pyrazin-2-yl]amino}-1,2-thiazole-4-carboxamide], greater than 20 µM.
The value for `Cc1nsc(Nc2cnc(C(F)(F)F)cn2)c1C(=O)Nc1ccc(F)c(OCC2CCN(CC(F)F)C2)c1` (stereo not shown) [Example 316, N-(3-{[1-(2,2-difluoroethyl)pyrrolidin-3-yl]methoxy}-4-fluorophenyl)-3-methyl-5-{[5-(trifluoromethyl)pyrazin-2-yl]amino}-1,2-thiazole-4-carboxamide] was no less than 20 µM.
Consider `Cc1nsc(Nc2cnc3ccccc3n2)c1C(=O)Nc1cccc(NS(=O)(=O)C2CN(CCF)C2)c1` [Example 287, N-[3-({[1-(2-fluoroethyl)azetidin-3-yl]sulfonyl}amino)phenyl]-3-methyl-5-(quinoxalin-2-ylamino)-1,2-thiazole-4-carboxamide], for which the IC50 was greater than 20 µM.
Take `Cc1nsc(Nc2cnc3ccccc3n2)c1C(=O)Nc1cccc(NS(=O)(=O)C2CCN(CC(F)(F)F)CC2)c1` [Example 281, 3-methyl-5-(quinoxalin-2-ylamino)-N-[3-({[1-(2,2,2-trifluoroethyl)piperidin-4-yl]sulfonyl}amino)phenyl]-1,2-thiazole-4-carboxamide]: the IC50 is greater than 20 µM.
The value for `Cc1nsc(Nc2cnc(C(F)(F)F)cn2)c1C(=O)Nc1ccc(OCCNCC(F)(F)F)nc1` [Example 322, 3-methyl-N-(6-{2-[(2,2,2-trifluoroethyl)amino]ethoxy}pyridin-3-yl)-5-{[5-(trifluoromethyl)pyrazin-2-yl]amino}-1,2-thiazole-4-carboxamide] was no less than 20 µM.
The value for `Cc1nsc(Nc2cnc(C(F)(F)F)cn2)c1C(=O)Nc1ccc(F)c(OCC2CCN(CC(F)F)CC2)c1` [Example 308, N-(3-{[1-(2,2-difluoroethyl)piperidin-4-yl]methoxy}-4-fluorophenyl)-3-methyl-5-{[5-(trifluoromethyl)pyrazin-2-yl]amino}-1,2-thiazole-4-carboxamide] was no less than 20 µM; that for `Cc1nsc(Nc2cnc(C(F)(F)F)cn2)c1C(=O)Nc1ccc(C(=O)NC2CN(CC(F)(F)F)C2)cc1` [Example 270, 3-methyl-N-(4-{[1-(2,2,2-trifluoroethyl)azetidin-3-yl]carbamoyl}phenyl)-5-{[5-(trifluoromethyl)pyrazin-2-yl]amino}-1,2-thiazole-4-carboxamide] was greater than 20 µM; that for `Cc1nsc(Nc2cnc(C(F)(F)F)cn2)c1C(=O)Nc1ccc(N(C)C)c(OCCCN(C)CC(F)(F)F)c1` [Example 299, N-[4-(dimethylamino)-3-{3-[methyl(2,2,2-trifluoroethyl)amino]propoxy}phenyl]-3-methyl-5-{[5-(trifluoromethyl)pyrazin-2-yl]amino}-1,2-thiazole-4-carboxamide] was greater than 20 µM.
The value for `Cc1nsc(Nc2cc(C#N)ccn2)c1C(=O)Nc1ccc(OC2CCN(CC(F)(F)F)CC2)nc1` [Example 25, 5-[(4-Cyanopyridin-2-yl)amino]-3-methyl-N-(6-{[1-(2,2,2-trifluoroethyl)piperidin-4-yl]oxy}pyridin-3-yl)-1,2-thiazole-4-carboxamide] was no less than 20 µM; that for `Cc1nsc(Nc2cnc(C(F)(F)F)cn2)c1C(=O)Nc1ccc(OC2CCN(CC(F)(F)F)C2)nc1` (stereo not shown) [Example 297, 3-methyl-N-(6-{[1-(2,2,2-trifluoroethyl)pyrrolidin-3-yl]oxy}pyridin-3-yl)-5-{[5-(trifluoromethyl)pyrazin-2-yl]amino}-1,2-thiazole-4-carboxamide] was greater than 20 µM.
For the molecule `Cc1nsc(Nc2cnc(C(F)(F)F)cn2)c1C(=O)Nc1ccc(OC2CCN(CCF)C2)nc1` (stereo not shown) [Example 295, N-(6-{[1-(2-fluoroethyl)pyrrolidin-3-yl]oxy}pyridin-3-yl)-3-methyl-5-{[5-(trifluoromethyl)pyrazin-2-yl]amino}-1,2-thiazole-4-carboxamide], the IC50 is greater than 20 µM.
The value for `Cc1nsc(Nc2ccc(C#N)cn2)c1C(=O)Nc1cccc(C(=O)NC2CC2)c1` [Example 250, 5-[(5-cyanopyridin-2-yl)amino]-N-[3-(cyclopropylcarbamoyl)phenyl]-3-methyl-1,2-thiazole-4-carboxamide] was greater than 20 µM; that for `COC(=O)CCc1cccc(NC(=O)c2c(C)nsc2Nc2cnc3ccccc3n2)c1` [Example 257, methyl 3-[3-({[3-methyl-5-(quinoxalin-2-ylamino)-1,2-thiazol-4-yl]carbonyl}amino)phenyl]propanoate] was greater than 20 µM.
The result for `CCNC(=O)c1cccc(NC(=O)c2c(C)nsc2Nc2ccc(C#N)cn2)c1` [Example 252, 5-[(5-cyanopyridin-2-yl)amino]-N-[3-(ethylcarbamoyl)phenyl]-3-methyl-1,2-thiazole-4-carboxamide] reads greater than 20 µM; that for `Cc1nsc(Nc2cnc(C(F)(F)F)cn2)c1C(=O)Nc1ccc(F)c(OCC2CCN(CCF)C2)c1` (stereo not shown) [Example 317, N-(4-fluoro-3-{[1-(2-fluoroethyl)pyrrolidin-3-yl]methoxy}phenyl)-3-methyl-5-{[5-(trifluoromethyl)pyrazin-2-yl]amino}-1,2-thiazole-4-carboxamide], greater than 20 µM; that for `Cc1nsc(Nc2cnc(C(F)(F)F)cn2)c1C(=O)Nc1ccc(OCCCO)nc1` [Example 279, N-[6-(3-hydroxypropoxy)pyridin-3-yl]-3-methyl-5-{[5-(trifluoromethyl)pyrazin-2-yl]amino}-1,2-thiazole-4-carboxamide], > 20 µM and 19 µM.
The result for `Cc1nsc(Nc2cc(C#N)ccn2)c1C(=O)Nc1ccc(OC2CCN(C(=O)OC(C)(C)C)CC2)nc1` [Example 23, tert-Butyl 4-({5-[({5-[(4-cyanopyridin-2-yl)amino]-3-methyl-1,2-thiazol-4-yl}-carbonyl)amino]pyridin-2-yl}oxy)piperidine-1-carboxylate] reads no less than 20 µM.
In the case of `Cc1nsc(Nc2cnc(C(F)(F)F)cn2)c1C(=O)Nc1ccc(C(=O)NC2CN(CC(F)F)C2)cc1` [Example 271, N-(4-{[1-(2,2-difluoroethyl)azetidin-3-yl]carbamoyl}phenyl)-3-methyl-5-{[5-(trifluoromethyl)pyrazin-2-yl]amino}-1,2-thiazole-4-carboxamide], the IC50 was greater than 20 µM.
The result for `Cc1nsc(Nc2cnc(C(F)(F)F)cn2)c1C(=O)Nc1ccc(F)c(OCCCN(C)CCC(F)(F)F)c1` [Example 303, N-(4-fluoro-3-{3-[methyl(3,3,3-trifluoropropyl)amino]propoxy}phenyl)-3-methyl-5-{[5-(trifluoromethyl)pyrazin-2-yl]amino}-1,2-thiazole-4-carboxamide] reads no less than 20 µM; that for `Cc1nsc(Nc2cnc(C(F)(F)F)cn2)c1C(=O)Nc1ccc(F)c(OCC2CCN(CC(F)(F)F)CC2)c1` [Example 310, N-(4-fluoro-3-{[1-(2,2,2-trifluoroethyl)piperidin-4-yl]methoxy}phenyl)-3-methyl-5-{[5-(trifluoromethyl)pyrazin-2-yl]amino}-1,2-thiazole-4-carboxamide], no less than 20 µM; that for `Cc1nsc(Nc2cnc(C(F)(F)F)cn2)c1C(=O)Nc1ccc(F)c(OCCCN(C)CC(F)(F)F)c1` [Example 302, N-(4-fluoro-3-{3-[methyl(2,2,2-trifluoroethyl)amino]propoxy}phenyl)-3-methyl-5-{[5-(trifluoromethyl)pyrazin-2-yl]amino}-1,2-thiazole-4-carboxamide], greater than 20 µM.
The result for `Cc1nsc(Nc2ccc(C#N)cn2)c1C(=O)Nc1cccc(C(=O)NC(C)C)c1` [Example 255, 5-[(5-cyanopyridin-2-yl)amino]-N-[3-(isopropylcarbamoyl)phenyl]-3-methyl-1,2-thiazole-4-carboxamide] reads greater than 20 µM.
